Test results from patent US20240368560A1, “METHODS OF PRODUCING THREE-DIMENSIONAL CELLULAR TISSUES” (TOPPAN HOLDINGS INC., priority 2022, published 2024).

How the values were obtained:
Format in all cases: cell-based, human
[1] = test system: three-dimensional cellular tissue (NHDF, HUVEC, HCT15/β2m cells); assay: Formation of collagen, PSR staining (Experimental Example 1); details: ascorbic acid 0.1 mM, alone or with TGF-β 1 ng/mL
Description: The medium inside and outside the above cell culture insert was removed, and 2 mL of general-purpose medium was added, using magnesium ascorbate phosphate (product number “013-12061”, FUJIFILM Wako Pure Chemical Corporation) and TGF-β (product number “209-16544”, FUJIFILM Wako Pure Chemical Corporation), with the ascorbic acid concentration being 0 mM, […], and the cells were cultured in a CO2 incubator (37° C., 5% CO2) for 3 days. Then, the medium inside and outside the culture insert was removed, and 2.3 mL of general-purpose medium was added with the ascorbic acid concentration being 0 mM, […], and the cells were cultured in a CO2 incubator (37° C., 5% CO2) for 3 days. On day 4 and day 7 of the culture, the obtained three-dimensional cellular tissue was washed twice with PBS, and […] of 10% formalin buffer solution (product number “062-01661”, FUJIFILM Wako Pure Chemical Corporation) was added to the cell culture insert, which was then allowed to stand for 15 minutes or more and washed three times with PBS to fix the three-dimensional cellular tissue. Then, the three-dimensional cellular tissue was removed from the cell culture insert, embedded in paraffin, and cut along a line passing through the center of gravity in a direction perpendicular to the top of the three-dimensional cellular tissue (top of the cell culture insert) to prepare a […] thin slice. […]

[2] = test system: three-dimensional cellular tissue (NHDF, HUVEC, HCT15/β2m cells); assay: Formation of collagen, PSR staining, timing of ascorbic acid addition (Experimental Example 2); details: day 7 of culture
Description: Preparation of stromal cells, seeding of cancer cells and lamination of stromal cells were performed in the same manner as in Experimental Example 1 except that 2.0×10^6 cells of human neonatal dermal fibroblasts NHDF were seeded, as NHDF, in a square dish (product number “166508”, Nunc) containing 90 mL of general-purpose medium or general-purpose medium containing 0.1 mM ascorbic acid, and cultured in a CO2 incubator (37° C., 5% CO2) for 24 hours.
Then, the medium inside and outside the cell culture insert was removed, and 2.3 mL of general-purpose medium or general-purpose medium containing 0.1 mM ascorbic acid was added, and the cells were cultured in a CO2 incubator (37° C., 5% CO2) for 3 days.
Subsequently, the medium inside and outside the culture insert was removed, and 2.3 mL of general-purpose medium or general-purpose medium containing 0.1 mM ascorbic acid was added, and the cells were cultured in a CO2 incubator (37° C., 5% CO2) for 3 days.
On day 7 of the culture, the three-dimensional cellular tissue was washed twice with PBS, and 300 μL of 10% formalin buffer solution (product number “062-01661”, FUJIFILM Wako Pure Chemical Corporation) was added to the cell culture insert, which was then allowed to stand for 15 minutes or more and washed three times with PBS to fix the three-dimensional cellular tissue. […]

[3] = test system: three-dimensional cellular tissue (NHDF, HUVEC, HCT15/β2m cells); assay: Bright-field observation of three-dimensional cellular tissue formation (Experimental Example 1); details: day 7 of culture; ascorbic acid 0, 0.05 or 0.1 mM; TGF-β 0, 0.1, 1, 5 or 10 ng/mL
Description: 1.0×10^6 cells of human neonatal dermal fibroblasts NHDF (product number “CC-2509”, Lonza) and 1.5×10^4 cells of human umbilical vein endothelial cells HUVEC (product number “C2517A”, Lonza) were suspended in a 50 mM tris-HCl buffer solution (pH 7.4) containing 0.1 mg/mL heparin (product number “H3149-100KU”, Sigma) and 0.1 mg/mL collagen (product number “ASC-1-100-100”, Sigma).
Then, the cell suspension was centrifuged at room temperature at 1,000×g (gravitational acceleration) for 2 minutes, and, after removing the supernatant, resuspended in 300 μL of general-purpose medium. Then, the obtained cell suspension was seeded inside a 24-well cell culture insert (product number “3470”, Corning Incorporated) coated with 0.1 mg/mL fibronectin in advance, with 1 mL of general-purpose medium added to the outside.
Then, the cell culture insert was centrifuged at room temperature at 400×g for 2 minutes, and then allowed to stand in a CO2 incubator (37° C., 5% CO2) for 2 hours. Then, 1 mL of general-purpose medium was added to the outside the cell culture insert, and the cells were cultured in a CO2 incubator (37° C., 5% CO2) for 24 hours (the time at which this culture was started is referred to as the culture start time).
The medium outside the cell culture insert was removed, and 1 mL of general-purpose medium was added. […]

Molecule | formation of collagen (PSR staining, PSR ratio) [1] | formation of collagen (PSR staining) ([2]; 0.1 mM ascorbic acid added after formation of the three-dimensional cellular tissue) | formation of collagen (PSR staining) ([2]; 0.1 mM ascorbic acid added to NHDF in advance (24 hours before tissue formation)) | formation of three-dimensional cellular tissue (microscopic observation) [3]
O=C1O[C@H]([C@@H](O)CO)C(O)=C1O [ascorbic acid] | fiber-like collagen was formed | collagen was found to be formed | no change in formation of collagen | a three-dimensional cellular tissue was formed
TGF-β | – | – | – | the cellular tissue shrunk and became detached from the cell culture insert, and no three-dimensional cellular tissue was formed
